Paper PMC2831097, “Inhibition of L-Arginine Metabolizing Enzymes by L-Arginine-Derived Advanced Glycation End Products” (Journal of Clinical Biochemistry and Nutrition, 2010)
Where two headings read alike, the source gives them in different places.

Key:
recombinant eNOS = biological target: T1, recombinant eNOS (Bos taurus, UniProt P29473); experiment: NOS activity assay, conversion of L-[14C(U)]-arginine to L-[14C(U)]-citrulline, eNOS; format: biochemical, bovine; conditions: 50 µM L-arginine, 30 min at 37°C, pH 7.4; means ± SD (n = 4)
T1 construct: purchased Sigma Chemicals (St. Louis, MO)
Text: (§1) L-Arginine, ADMA, N^G-hydroxy-L-arginine (NOHA), nicotinamide adenine dinucleotide phosphate reduced form (NADPH), flavin adenine dinucleotide (FAD), flavin mononucleotide (FMN), (6R)-5,6,7,8-tetrahydrobiopterin (BH4), recombinant eNOS (from bovine), iNOS (from mouse macrophage), Dowex® AG50W-X8 cation-exchange resin (mesh size, 100–200) were all purchased from Sigma Chemicals (St. Louis, MO). Ultima Gold XR scintillation liquid was from PerkinElmer (Shelton, CA). Recombinant nNOS (from rat) and N^G-hydroxy-nor-arginine (nor-NOHA) were obtained from Cayman Chemicals. Arginase (from bovine liver) was from Alexis Biochemicals (Lausen, Switzerland). […] All other chemicals were obtained from Wako Pure Chemical Industries, Osaka, Japan.
(§2) The NOS activities were determined by monitoring the conversion of L-[^14C(U)]-arginine (Moravek, Brea, CA) to L-[^14C(U)]-citrulline as previously described. Recombinant enzymes of three isoforms of NOS (specific activity: eNOS 0.03, nNOS 2.9, iNOS 0.62 units/mg protein) (10 µl) were added to a reaction mixture (final volume of 100 µl) consisting of 50 mM HEPES buffer (pH 7.4), 1 mM NADPH, 4 µM FAD, 4 µM FMN, 10 µM BH4, 1 mg/L calmodulin, 2.5 mM CaCl2, 50 µM L-arginine and 0.5 µCi/ml of L-[^14C(U)]-arginine (specific activity: 8.14–11.1 GBq/mmol). After incubation for 30 min at 37°C, the reactions were terminated by addition of 0.5 ml of 20 mM HEPES (pH 5.5) containing 2 mM EDTA and 2 mM EGTA. Samples were passed through a 1 ml column of Dowex AG50W-X8 (Na^+-form) to remove unconverted L-[^14C(U)]-arginine. L-[^14C(U)]-Citrulline was eluted twice with 1 ml of distilled water, and the eluted fractions mixed with 10 ml of cocktail (Ultima Gold XR) were quantified using a liquid scintillation counter. A reaction mixture containing L-[^14C(U)]-arginine without the enzyme was incubated as a control to determine background counts.

recombinant iNOS = biological target: T2, recombinant iNOS (Mus musculus, UniProt P29477); experiment: NOS activity assay, conversion of L-[14C(U)]-arginine to L-[14C(U)]-citrulline, iNOS; format: biochemical; conditions: 50 µM L-arginine, 30 min at 37°C, pH 7.4; means ± SD (n = 4)
T2 construct: purchased Sigma Chemicals (St. Louis, MO)
Text: as §1, §2

recombinant nNOS = biological target: T3, recombinant nNOS (Rattus norvegicus, UniProt P29476); experiment: NOS activity assay, conversion of L-[14C(U)]-arginine to L-[14C(U)]-citrulline, nNOS; format: biochemical; conditions: 50 µM L-arginine, 30 min at 37°C, pH 7.4; means ± SD (n = 4)
T3 construct: purchased Cayman Chemicals
Text: as §1, §2

arginase = biological target: T4, arginase (Bos taurus, UniProt Q2KJ64); experiment: Arginase activity assay, conversion of L-[guanidine-14C]-arginine to [14C]-urea; format: biochemical, bovine; conditions: for IC50: 1 mM MnCl2, pH 9.6, 1 h at 37°C, means ± SD (n = 4); for inhibitory efficiency for arginase, fold weaker than NOHA: compared with NOHA (IC50 340 µM)
T4 construct: purchased Alexis Biochemicals (Lausen, Switzerland)
T4 sequence (Q2KJ64 1-322): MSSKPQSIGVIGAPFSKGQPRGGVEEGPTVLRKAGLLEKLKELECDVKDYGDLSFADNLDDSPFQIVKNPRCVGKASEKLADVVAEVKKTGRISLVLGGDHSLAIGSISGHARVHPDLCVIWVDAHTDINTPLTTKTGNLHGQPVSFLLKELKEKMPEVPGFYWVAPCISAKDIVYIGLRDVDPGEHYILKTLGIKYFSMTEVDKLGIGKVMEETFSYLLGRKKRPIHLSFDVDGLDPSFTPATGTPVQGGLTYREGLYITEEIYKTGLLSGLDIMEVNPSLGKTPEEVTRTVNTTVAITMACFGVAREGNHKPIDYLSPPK
Text: L-Arginine, ADMA, N^G-hydroxy-L-arginine (NOHA), nicotinamide adenine dinucleotide phosphate reduced form (NADPH), flavin adenine dinucleotide (FAD), flavin mononucleotide (FMN), (6R)-5,6,7,8-tetrahydrobiopterin (BH4), recombinant eNOS (from bovine), iNOS (from mouse macrophage), Dowex® AG50W-X8 cation-exchange resin (mesh size, 100–200) were all purchased from Sigma Chemicals (St. Louis, MO). Ultima Gold XR scintillation liquid was from PerkinElmer (Shelton, CA). Recombinant nNOS (from rat) and N^G-hydroxy-nor-arginine (nor-NOHA) were obtained from Cayman Chemicals. Arginase (from bovine liver) was from Alexis Biochemicals (Lausen, Switzerland). L-NMMA was from Calbiochem, Darmstadt, Germany. All other chemicals were obtained from Wako Pure Chemical Industries, Osaka, Japan.
Assays for arginase activity were performed by monitoring the conversion of L-[guanidine-^14C]-arginine (Moravek, Brea, CA) to [^14C]-urea as previously described. Recombinant arginase (0.5 µg of protein, specific activity: 0.094 units/mg protein) (10 µl) was added to a mixture (final volume of 100 µl) containing 10 mM Tris-HCl buffer, pH 9.6, 1 mM MnCl2, and 0.16 µCi/ml of L-[guanidine-^14C]-arginine (specific activity: 1.85–2.22 GBq/mmol). After incubation for 1 h at 37°C, the reactions were terminated by addition of 0.4 ml of stop buffer containing 250 mM sodium acetate and 100 mM urea, pH 4.5. Samples were then passed through a 1 ml column of Dowex AG50W-8X (Na^+-form) to remove unmetabolized L-[guanidine-^14C]-arginine. [^14C]-Urea was eluted twice with 1 ml of distilled water, and the eluted fractions mixed with 10 ml of cocktail (Ultima Gold XR) were quantified using a liquid scintillation counter. A reaction mixture containing L-[guanidine-^14C]-arginine in the absence of enzyme was incubated as a control to determine background counts. The inhibitory effects of arginase were examined in the presence and absence of the test compounds at various concentrations.

[1] = biological target: T5, dimethylarginine dimethylaminohydrolase (DDAH) (Rattus norvegicus, UniProt O08557); experiment: DDAH activity assay, conversion of L-[3H]-NMMA to L-[3H]-citrulline by rat kidney homogenate; format: biochemical
T5 construct: from tissue; host or cells: rat kidney homogenate supernatant
Protocol: The DDAH activity was determined by monitoring the conversion of L-[4,5-^3H]-NMMA (American Radiolabeled Chemicals, Inc., St. Louis, MO) to L-[^3H]-citrulline as previously described. Rat kidney tissues (0.5 g) were homogenized in 1 ml of ice-cold 0.1 M sodium phosphate buffer (SPB, pH 6.5), and then centrifuged at 10,000 rpm for 5 min at 4°C. The supernatants were analyzed for protein content using a BCA protein reagent kit with bovine serum albumin as the standard. The supernatants were diluted with SPB to 1 mg protein in 50 µl, and then were added to a reaction mixture (a final volume of 100 µl) containing 0.1 M SPB (pH 6.5) and 0.1 µCi/ml of L-[^3H]-NMMA (specific activity: 1.48–2.96 TBq/mmol). After incubation for 1 h at 37°C, the reactions were terminated by keeping the tubes on ice for 5 min. Samples were then passed through a 1 ml column of Dowex AG50W-8X (Na^+-form) to remove unmetabolized L-[^3H]-NMMA. L-[^3H]-Citrulline was eluted twice with 1 ml of distilled water, and the eluted fractions mixed with 10 ml of cocktail (Ultima Gold XR) were quantified using a liquid scintillation counter. A reaction mixture containing L-[^3H]-NMMA in the absence of enzyme was added to the Dowex column to determine background counts. The effects of arginine derivatives on the enzyme activities in the presence and absence of the test compounds at various concentrations were examined.

[2] = rat kidney extracts, SPB pH 6.5, 1 h at 37°C, means ± SD (n = 4), read-out: IC50 DDAH

T5 sequence (O08557 whole entry): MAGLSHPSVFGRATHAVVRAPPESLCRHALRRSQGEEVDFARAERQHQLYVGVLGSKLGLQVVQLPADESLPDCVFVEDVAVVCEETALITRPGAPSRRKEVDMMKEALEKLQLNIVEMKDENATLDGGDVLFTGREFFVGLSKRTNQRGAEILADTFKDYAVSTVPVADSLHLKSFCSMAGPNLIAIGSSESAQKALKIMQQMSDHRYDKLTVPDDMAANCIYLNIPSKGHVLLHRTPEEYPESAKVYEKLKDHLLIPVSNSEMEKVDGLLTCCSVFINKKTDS

| SMILES | IC50 (recombinant eNOS) [µM] | IC50 (recombinant iNOS) [µM] | IC50 (recombinant nNOS) [µM] | IC50 (arginase) [µM] | IC50 [1] [µM] | inhibitory efficiency for arginase, fold weaker than NOHA (arginase) | IC50 [1, 2] [µM] |
| --- | --- | --- | --- | --- | --- | --- | --- |
| CN(C)C(=N)NCCCC(N)C(=O)O [ADMA, asymmetric N^G,N^G-dimethyl-L-arginine, reference compound] | 16 ± 9 | 24 ± 1 | 23 | – | – | – | – |
| CC(NC(=N)NCCCC(N)C(=O)O)C(=O)O (stereo not shown) [CEA, N^ω-carboxyethyl-arginine] | 3870 ± 680 | > 5000 | > 5000 | > 5000 | > 5000 | – | – |
| N=C(NCCCC(N)C(=O)O)NCC(=O)O (stereo not shown) [CMA, N^ω-Carboxymethyl-arginine] | 830 ± 36 | 1160 ± 40 | > 5000 | 1470 ± 120 | > 5000 | approximately 3 fold | – |
| NC(CCCCNCC(=O)O)C(=O)O (stereo not shown) [CML, carboxymethyl-lysine] | > 5000 | > 5000 | 1930 ± 300 | 1060 ± 60 | – | approximately 3 fold | > 5000 |
| CC1NC(NCCCC(N)C(=O)O)=NC1=O (stereo not shown) [MG-H1, N^δ-(5-hydro-5-methyl-4-imidazolon-2-yl)-ornithine] | 1280 ± 75 | 2970 ± 560 | 4170 ± 380 | > 5000 | – | – | > 5000 |
| NC(=NCCCC(N)C(=O)O)NO [NOHA, N^G-hydroxy-L-arginine, reference compound] | – | – | – | 340 ± 12 | – | – | – |
| N=C(NO)NCC[C@H](N)C(=O)O [Nor-NOHA, N^G-hydroxy-nor-arginine, reference compound] | – | – | – | 230 ± 26 | 1770 ± 250 | – | – |
